Assay in all cases: DTP human tumour cell line panel, 48 h
In assay [1] the test system is A549 NSCLC.
Assay [2] deals with KM12 colon.
Assay [3] deals with MALME-3M melanoma.
The test system of assay [4] is MDA-MB-231 breast.
The test system of assay [5] is MDA-MB-435.
For assay [6], the system named is NCI-H23 lung.
The subject of assay [7] is OVCAR-8 ovarian.
Assay [8] has as its system RPMI-8226 leukemia.
Assay [9] relates to SW-620 colon.
The subject of assay [10] is U251 CNS.

Where “and” joins values, the source holds several entries; their conditions need not be identical. Identical values can stand only once.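 Dose response: 5 concentrations. Exposure: 48 h. Format: 96-well plates. Endpoint: linear interpolation; highest concentration if not reached. GI50 = concentration required for 50% inhibition of growth. TGI is the concentration that stops growth completely.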

For the molecule `NS(=O)(=O)c1ccc(NNc2c3ccccc3nc3c(C(=O)Nc4ccc(S(=O)(=O)Nc5ncccn5)cc4)cccc23)cc1`, the TGI in assay [1], in [2], in [3], in assay [4], in assay [5] and in assay [6] was > 25 µM each time. Also, the TGI in [7], in assay [8], in assay [9] and in assay [10] was > 25 µM in each case.
With `Cn1c2ccccc2n2c3ncccc3c(=S)c(C#N)c12`, the TGI in assay [1], in assay [2], in assay [3], in [4], in assay [5] and in assay [6] was > 100 µM throughout. Moreover, the TGI in assay [7], in assay [8], in assay [9] and in assay [10] was > 100 µM throughout.
In the case of `C(/Cc1ccc2c(c1)OCO2)=N\NC1=NCCCN1`, the TGI in [1], in [2], in assay [3], in [4], in assay [5] and in assay [6] was > 100 µM in each case. Further, the TGI in assay [7], in assay [8], in assay [9] and in [10] was > 100 µM in each case.
Consider `COc1ccc(-c2cc(C(O)C3CCCCN3)c3ccccc3n2)cc1` (configuration not stated), for which the total growth inhibition concentration (TGI) in assay [1] came to 27.8 µM; in assay [2], 15.3 µM; in [3] it was 28.9 µM; in assay [4], 9.83 µM; in [5] it was 15.1 µM; in [6] it was 31.6 µM. For the same molecule, the TGI came to 29.5 µM in assay [7], 5.82 µM in assay [8], 25.2 µM in assay [9] and 14.5 µM in assay [10].
Regarding `CN(C)C(=S)Oc1ccc2ccc(=O)oc2c1`, the TGI in assay [1], in [2], in assay [3], in assay [4], in [5] and in assay [6] was > 100 µM each time. For the same molecule, the TGI in assay [7], in assay [8], in assay [9] and in [10] was > 100 µM in each case.
For `COC(=O)c1c(C)nc(C)c(NO)c1-c1ccccc1C(F)(F)F`, the total growth inhibition concentration (TGI) in [1] was > 100 µM; in assay [2] it was > 100 µM; in [3], 32.8 µM; in [4], 27.9 µM; in assay [5], 37.6 µM; in assay [6] it was 84.3 µM. For the same molecule, the TGI in assay [7] is 33.2 µM; in assay [8], 70.6 µM; in assay [9], 30.2 µM; in assay [10] it was > 100 µM.
For `CCOC(=O)c1cnccc1CC1(C#N)c2ccccc2C=CN1C(=O)c1ccccc1` (configuration not stated), the TGI in assay [1] is > 100 µM; in [2] it was 31.3 µM; in assay [3], 26.5 µM; in [4], > 100 µM; in assay [5], > 100 µM; in assay [6] it was > 100 µM. Moreover, the TGI in assay [7] is 37.2 µM; in assay [8], 27.6 µM; in assay [9] it was > 100 µM; in assay [10] it was > 100 µM.
`Cc1ccc(-c2n[nH]c(=O)n2/N=C\c2ccccc2)cc1`: the TGI in assay [1], in assay [2], in assay [3], in [4], in [5] and in assay [6] was > 100 µM each time. The TGI in [7], in [8], in assay [9] and in assay [10] was > 100 µM in each case.
`Nc1nc(Cl)cc(NCC2(O)CCCC2)n1`: the TGI in assay [1], in assay [2], in assay [3], in assay [4], in [5] and in assay [6] was > 100 µM each time. Moreover, the TGI in assay [7], in assay [8], in assay [9] and in assay [10] was > 100 µM throughout.
As to `C=C1C(=O)O[C@H]2[C@H]3O[C@@H](C[C@@H]12)[C@](C)(O)CC[C@@H]1O[C@@]1(C)CCC[C@H]3C`, the TGI was > 100 µM in assay [1]; 57.3 µM in assay [2]; 31 µM in assay [3]; 65.8 µM in assay [4]; 42.2 µM in assay [5]; 41.7 µM in assay [6]. Moreover, the TGI in assay [7] was 47.5 µM; in assay [8], > 100 µM; in assay [9], 42.1 µM; in [10], 84.5 µM.
With `NCCC1CN(C(=O)OCc2ccccc2)c2ccccc21` (configuration not stated), the concentration for total growth inhibition (TGI) was > 53.6 µM in [1]; 48.2 µM in [2]; 29.1 µM in assay [3]; 46.6 µM in [4]; 30 µM in assay [5]; 41.8 µM in assay [6]. Besides, the concentration for total growth inhibition (TGI) in assay [7] came to 20.3 µM; in [8], 46.6 µM; in assay [9] it was 25.4 µM; in assay [10], 32.4 µM.
For the molecule `S=C(NCc1ccccc1)N/N=C/c1ccccn1`, the concentration for total growth inhibition (TGI) in assay [1], in assay [2], in assay [3], in assay [4], in assay [5] and in assay [6] was > 100 µM each time. The TGI in [7] was > 76.2 µM; in assay [8], 2.33 µM; in assay [9] it was > 61.4 µM; in assay [10], 23.9 µM.
`NCCOCC(N)C(=O)O` (configuration not stated): the TGI in assay [1], in assay [2], in assay [3], in assay [4], in [5] and in assay [6] was > 100 µM in each case. In addition, the TGI in [7], in [8], in [9] and in assay [10] was > 100 µM throughout. Further, the GI50 in assay [8] is 39.1 µM and > 100 µM.
For the molecule `CC(=O)/C(=C\c1ccc(Cl)c(Cl)c1)C(=O)C(C)CN(C)C` (configuration not stated), the TGI in assay [1] was 35.7 µM; in [2], 5.35 µM; in assay [3], 21.9 µM; in assay [4], 27.3 µM; in assay [5], 12.3 µM; in assay [6], 30.6 µM. In addition, the concentration for total growth inhibition (TGI) in assay [7] was 6.45 µM; in assay [8], 3.63 µM; in assay [9], 9.01 µM; in assay [10], 12.9 µM.
As to `CC1CC/C(=C\c2ccc(Cl)cc2)c2nc(N)c(C#N)c(-c3ccc(Cl)cc3)c21` (configuration not stated), the TGI in [1] was > 100 µM; in assay [2] it was > 100 µM; in [3], 62 µM; in assay [4], > 100 µM; in [5] it was > 100 µM; in assay [6], > 100 µM. In addition, the concentration for total growth inhibition (TGI) in assay [7], in assay [8], in [9] and in [10] was > 100 µM throughout.
Consider `C/C(Nc1ccc(Cl)cc1Cl)=C1/CCOC1=O`, for which the TGI is > 100 µM in assay [1]; > 100 µM in assay [2]; > 100 µM in [3]; 46.3 µM in assay [4]; > 100 µM in assay [5]; > 100 µM in assay [6]. Besides, the concentration for total growth inhibition (TGI) in [7] was > 100 µM; in assay [8] it was > 100 µM; in assay [9], > 100 µM; in assay [10], 66.5 µM.
For the molecule `O=[N+]([O-])c1ccc(C(Nc2ccccc2)c2ccc3cccnc3c2O)cc1` (configuration not stated), the TGI was > 100 µM in [1]; > 100 µM in assay [2]; > 65.2 µM in [3]; 59.9 µM in assay [4]; > 78 µM in [5]; > 100 µM in [6]. Moreover, the TGI in [7] is 52.3 µM; in assay [8] it was 38.5 µM; in [9], > 100 µM; in assay [10], 25.2 µM.
Turning to `C/C(=N\Nc1nc2ccccc2[nH]1)c1cc2ccccc2cn1`, the TGI in [1] is > 100 µM; in assay [2], 1.88 µM; in assay [3], 0.664 µM; in assay [4], 1.97 µM; in assay [5] it was 1.1 µM; in assay [6], 1.64 µM. The TGI in [7] was 1.24 µM; in assay [8], 0.599 µM; in [9], 1.65 µM; in [10], 0.863 µM.
Regarding `c1ccc(-c2nnn(CCN3CCCCC3)n2)cc1`, the TGI in assay [1], in assay [2], in assay [3], in [4], in assay [5] and in assay [6] was > 100 µM each time. Moreover, the concentration for total growth inhibition (TGI) in assay [7], in assay [8], in assay [9] and in assay [10] was > 100 µM in each case.
As for `CCOP(=O)(OCC)C(C)(CC)NC(=O)C(C(F)(F)F)C(F)(F)F` (configuration not stated), the TGI in assay [1], in assay [2], in [3], in assay [4], in [5] and in assay [6] was > 100 µM throughout. The TGI was > 100 µM in assay [7]; > 81.6 µM and 59.7 µM in assay [8]; > 100 µM in assay [9]; > 100 µM in assay [10]. In addition, the GI50 in assay [4] is > 100 µM.
As for `NC1=NCC(CN2CCCC2)O1` (configuration not stated), the TGI in [1], in assay [2], in [3], in assay [4], in assay [5] and in assay [6] was > 100 µM throughout. The TGI in [7], in assay [8], in [9] and in [10] was > 100 µM throughout.
As for `NC(=O)CO/N=C1/C(c2c(O)[nH]c3ccccc23)=Nc2ccccc21`, the TGI in [1], in assay [2], in assay [3], in assay [4], in assay [5] and in assay [6] was > 100 µM throughout. Also, the TGI in assay [7], in [8], in assay [9] and in assay [10] was > 100 µM each time.
On to `Cc1cc2c(c(=O)n1C)SCC2`, for which the TGI in [1], in assay [2], in assay [3], in assay [4], in assay [5] and in assay [6] was > 100 µM in each case. Further, the TGI in assay [7], in assay [8], in [9] and in assay [10] was > 100 µM in each case.
Regarding `CSc1nc(NC(C)C)c2c(n1)Sc1nc3ccccc3n1C2O` (configuration not stated), the TGI in assay [1] is > 100 µM; in assay [2], > 100 µM; in assay [3], 49.6 µM; in assay [4], > 100 µM; in [5] it was 5.02 µM; in assay [6], > 100 µM. The TGI was > 100 µM in assay [7], 12.5 µM in [8], 65.3 µM in assay [9] and > 100 µM in assay [10].
Take `Cc1cc2cc3c(cc2c(-c2ccc(N)cc2)n1)OCO3`: the TGI in assay [1], in assay [2], in assay [3], in assay [4], in [5] and in assay [6] was > 100 µM in each case. The TGI in assay [7] was > 100 µM; in assay [8], 73.7 µM; in assay [9], > 100 µM; in [10], > 100 µM.
Regarding `NC(=O)Cc1nc2c(=O)[nH]cnc2n1C1OC(CO)C(O)C1O` (configuration not stated), the total growth inhibition concentration (TGI) in [1], in assay [2], in assay [3], in assay [4], in [5] and in assay [6] was > 100 µM throughout. Besides, the TGI in assay [7], in assay [8], in assay [9] and in assay [10] was > 100 µM each time.
As to `CCC(CC(C)C)Nc1ccc(NC(CC)CC(C)C)cc1` (configuration not stated), the GI50 in assay [1] was 24.8 µM; in assay [2], 15.6 µM; in assay [3], 14.7 µM; in [4] it was 16.4 µM; in assay [5], 18.2 µM; in assay [6], 18.2 µM. Moreover, the GI50 was 18.2 µM in assay [7], 3.85 µM in [8], 15.6 µM in assay [9] and 13 µM in [10]. Further, the TGI in [1] was determined as 65.6 µM; in assay [2], 30.2 µM; in assay [3], 34.3 µM; in assay [4] it was 33.2 µM; in assay [5], 40 µM; in [6], 46.3 µM. Further, the TGI in assay [7] turned out to be 34.2 µM; in assay [8] it was 18.5 µM; in assay [9], 30.1 µM; in [10] it was 26.6 µM.

One may read the TGI as the concentration at which net growth stops. A high value points to less potent growth arrest. The GI50 is the concentration giving 50% growth inhibition.
